This is an account of results in patent US10100052B2, “Compounds for the treatment of hepatitis B virus infection” (Gilead Sciences, Inc., priority 2016, dated 2018).

The nature of series [1]: In vitro metabolic stability, hepatocytes (human). Type of series: in vitro ADME. To be noted: human hepatocytes 1×10^6 cells/mL, 2 μM compound; read-out: Hepatocyte Stability T1/2 Human (converted). On the procedure: (§1) For hepatocyte stability incubations, cells were obtained from BioreclamationIVT (Baltimore, Md.), thawed according to the manufacturer's directions, and resuspended to a final concentration of 1×10^6 cells/mL in Krebs-Henseleit buffer prewarmed to 37° C. The total cell count and the proportion of viable cells were determined by Trypan Blue dye exclusion using a hemocytometer. The final concentration of test compounds and positive controls was 2 μM. Incubations were carried out in duplicate wells of a 24-well plate out with gentle shaking at 37° C. under a humid atmosphere of 95% air/5% CO2 (v/v). Aliquots (50 μL) were removed after 0, 1, 3, and 6 hours and added to 100 μL quenching solution. Samples were then processed and analyzed in a manner similar to the microsomal stability samples.
(§2) Quantification of test compounds and positive controls were performed using analyte/internal standard peak area ratios (PAR) measured on a Q-Exactive mass spectrometer (Thermo Scientific, San Jose, Calif.) coupled to an Aria Transcend LX-4 multiplex UHPLC system (Thermo Scientific, San Jose, Calif.). […] Half-lives of compounds in the incubations were calculated from extracted data using GMSU/QuickCalc (Gubbs, Inc.) and data are summarized in the following Table 3.

Series [2] can be described thus: In vitro metabolic stability, hepatocytes (rat). The class given is in vitro ADME. To be noted: rat hepatocytes 1×10^6 cells/mL, 2 μM compound; read-out: Hepatocyte Stability T1/2 Rat (converted). On the procedure: as §1, §2

For `COCCCOc1cc2c(cc1Cl)-c1cc(=O)c(C(=O)O)cn1[C@H](C1(C)CC1)C2` [Comparative Example 1], the values for the half-life at 2 μM in series [1] and in series [2] were 8.9 h and 7 h, respectively.

In the case of `COCCCOc1cc2c(cc1Cl)-c1cc(=O)c(C(=O)O)cn1N(C(C)(C)C)C2` [Example 2, 6-(tert-Butyl)-10-chloro-9-(3-methoxypropoxy)-2-oxo-6,7-dihydro-2H-pyrido[2,1-a]-phthalazine-3-carboxylic acid], the half-life at 2 μM was 26.6 h in series [1] and more than 39.5 h in series [2].
